Reference: patent US20150368248A1, “2-SUBSTITUTED-6-BIARYLMETHYLAMINO-9-CYCLOPENTYL-9H-PURINE DERIVATIVES, USE THEREOF AS MEDICAMENTS, AND PHARMACEUTICAL COMPOSITIONS” (UNIVERZITA PALACKEHO V OLOMOUCI, priority 2013, published 2015)
Like-named read-outs stand apart in the source and are kept apart here.

How the values were obtained:
PLC/PRF/5 = assay: MTT cytotoxicity assay (Example 30); type: cell-based; details: Homo sapiens, PLC-PRF-5, 72 h; MTT, three days after drug addition; read-out: Inhibitory concentration IC50, PLC/PRF/5
Experimental: (§1) Cytotoxicity of the compounds is the major property determining their anticancer effect in vivo. One of the parameters used, as the basis for cytotoxicity assays, is the metabolic activity of viable cells.
(§2) We have been using the following cell lines: HUH-7 and PLC/PRF/5 cell lines were maintained in DMEM supplemented with 10% fetal bovine serum, penicillin (100 U/ml) and streptomycin (100 μg/ml). […] HepG2 cell line was maintained in EMEM supplemented with 10% fetal bovine serum, sodium pyruvate (0.11 g/1), penicillin (100 U/ml) and streptomycin (100 μg/ml). All cell lines were cultivated at 37° C. in 5% CO2. For cytotoxicity assays, 3000 cells (10000 cells in case of HepG2 cell line) were seeded into each well of 96 well plate and the next day tested compounds were added at various concentrations in triplicates. Three days after drug addition MTT stock solution (5 mg/ml) was added into each well and incubated for 4 h. After this incubation period, produced formazan was dissolved by DMSO and final absorbance was measured at 570 nm with Synergy H4 Hybrid Multi-Mode Microplate Reader.

HUH-7 = assay: MTT cytotoxicity assay (Example 30); type: cell-based; details: Homo sapiens, Huh-7, 72 h; MTT, three days after drug addition; read-out: Inhibitory concentration IC50, HUH-7
Experimental: as §1, §2

HCC-1.1 (3sp) = assay: MTT cytotoxicity assay (Example 30); type: cell-based; details: Homo sapiens, 72 h; MTT, three days after drug addition; read-out: Inhibitory concentration IC50, 3sp
Experimental: as §1, §2

HCC-1.2 (3p) = assay: MTT cytotoxicity assay (Example 30); type: cell-based; details: Homo sapiens, HCC-1.2, 72 h; MTT, three days after drug addition; read-out: Inhibitory concentration IC50, 3p
Experimental: as §1, §2

CDK1/cyclin B = molecular target: T1, CDK1/cyclin B (Homo sapiens, UniProt P06493); assay: Kinase inhibition assay, recombinant kinase, [γ-33P]ATP; type: biochemical
T1 construct: made in house; host or cells: Sf9 insect cells (baculovirus)
T1 sequence (P06493 whole entry, species assumed): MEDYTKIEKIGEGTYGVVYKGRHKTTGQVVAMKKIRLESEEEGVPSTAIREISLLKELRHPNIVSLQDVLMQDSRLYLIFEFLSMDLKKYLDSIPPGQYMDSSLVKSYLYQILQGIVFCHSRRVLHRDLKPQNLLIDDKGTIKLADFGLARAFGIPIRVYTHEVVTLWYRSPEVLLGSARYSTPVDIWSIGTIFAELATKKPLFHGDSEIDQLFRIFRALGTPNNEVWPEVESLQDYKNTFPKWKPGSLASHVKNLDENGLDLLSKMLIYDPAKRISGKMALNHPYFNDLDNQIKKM
T1 sequence (P14635 whole entry partner, species assumed): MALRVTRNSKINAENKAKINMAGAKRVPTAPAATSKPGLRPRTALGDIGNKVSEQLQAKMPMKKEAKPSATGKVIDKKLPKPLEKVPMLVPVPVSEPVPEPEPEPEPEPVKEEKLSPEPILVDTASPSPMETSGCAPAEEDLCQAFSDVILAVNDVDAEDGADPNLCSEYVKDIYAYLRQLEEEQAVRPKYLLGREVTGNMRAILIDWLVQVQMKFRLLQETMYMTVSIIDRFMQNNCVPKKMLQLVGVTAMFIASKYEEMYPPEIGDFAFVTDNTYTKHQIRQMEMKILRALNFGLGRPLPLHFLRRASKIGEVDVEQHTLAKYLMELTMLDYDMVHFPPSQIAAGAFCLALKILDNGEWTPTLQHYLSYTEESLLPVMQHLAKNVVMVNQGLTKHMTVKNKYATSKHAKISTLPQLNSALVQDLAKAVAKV
Experimental: CDK2/Cyclin E kinase was produced in Sf9 insect cells via baculoviral infection and purified on a NiNTA column (Qiagen). CDK5/p35, CDK7Cyclin H/MAT1 and CDK9/Cyclin T1 was purchased from ProQinase GmbH. […] The reactions were stopped by adding 5 μL of 3% aq H3PO4. Aliquots were spotted onto P-81 phosphocellulose (Whatman), washed 3× with 0.5% aq H3PO4 and finally air-dried.
(§3) CDK1/cyclin B and CDK2/cyclin E kinases were produced in Sf9 insect cells via baculoviral infection, while CDK5/p35, CDK7/cyclin H/MAT1, and CDK9/cyclin T1 were purchased from ProQinase (Freiburg, Germany) and assayed as described previously (35). The kinase reactions were assayed with 1 mg/ml histone H1 (for CDK2 and CDK5) or (YSPTSPS)2KK peptide (for CDK7 and CDK9) in the presence of 15/0.15/1.5/1.5 […] ATP (for CDK2/CDK5/CDK7CDK9), […] [γ-^33P]ATP and of the test compound in a final volume of […]. The reaction buffer contained 60 mM HEPES-NaOH, pH 7.5, 3 mM MgCl2, 3 mM MnCl2, 3 mM Na-orthovanadate, 1.2 mM DTT, 2.5 mg/50 ml PEG20.000. The reactions were stopped by adding […] of 3% H3PO4. Aliquots were spotted onto P-81 phosphocellulose (Whatman, GE Healthcare Biosciences, Pittsburgh, USA), washed 3 times with 0.5% H3PO4 and finally air-dried. Kinase inhibition was quantified using a FLA-7000 digital image analyzer (Fujifilm, Tokyo, Japan).

[1] = tested on: human umbilical vein endothelial cells (HUVECs); assay: Migration scratch assay; type: cell-based; set-up: key to Wound area: ++: open; +: partly open; 0: closed; details: 24 h
Experimental: Migration assay was performed as described previously (Krystof et al., 2011, Eur J Med Chem.; 46(9):4289-94). Briefly, confluent HUVECs were scratched and immediately treated for 24 h with various doses of compounds. After incubation each well was photographed using a DP Controller system (Olympus) connected to a Olympus BX50 microscope. Migration was expressed as the proportion of pixels of the wound area in the image that were not covered by cells using “in house” software.

[2] = tested on: human umbilical vein endothelial cells (HUVEC); assay: HUVEC proliferation, Calcein AM; type: cell-based; details: Homo sapiens, HUVEC, read-out: Inhibitory concentration for HUVEC cells - IC50
Experimental: Novel 2-substituted-6-biarylmethylamino-9-cyclopentyl-9H-purine derivatives were tested for their potential anti-angiogenic properties; we analyzed its influence on the proliferation (Tab. 9), migration and tube formation of human umbilical vein endothelial cells (HUVEC). Confluent HUVECs were seeded in 96-well microtiter plates to detect their proliferation for 24 or 72 h using Calcein AM solution (Invitrogen) and a Fluoroskan Ascent microplate reader (Labsystems) as described previously (Krystof et al., 2011, Eur J Med Chem. 2011 September; 46(9):4289-94).

CDK5/p35 = molecular target: T2, CDK5/p35 (Homo sapiens, UniProt Q00535); assay: Kinase inhibition assay, recombinant kinase, [γ-33P]ATP; type: biochemical; details: read-out: Residual kinase activity, CDK5; for remaining activity at 0.1 µM: 100 nM; for remaining activity at 1 µM: 1000 nM
T2 construct: purchased ProQinase GmbH (Freiburg, Germany)
T2 sequence (Q00535 whole entry): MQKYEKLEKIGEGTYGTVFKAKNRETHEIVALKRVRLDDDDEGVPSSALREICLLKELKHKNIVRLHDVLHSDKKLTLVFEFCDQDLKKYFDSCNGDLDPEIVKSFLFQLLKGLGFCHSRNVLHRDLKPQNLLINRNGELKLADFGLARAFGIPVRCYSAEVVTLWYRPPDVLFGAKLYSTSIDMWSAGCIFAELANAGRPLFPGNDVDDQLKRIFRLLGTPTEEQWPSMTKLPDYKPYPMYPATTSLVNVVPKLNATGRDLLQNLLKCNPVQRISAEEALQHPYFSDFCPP
T2 sequence (Q15078 whole entry partner): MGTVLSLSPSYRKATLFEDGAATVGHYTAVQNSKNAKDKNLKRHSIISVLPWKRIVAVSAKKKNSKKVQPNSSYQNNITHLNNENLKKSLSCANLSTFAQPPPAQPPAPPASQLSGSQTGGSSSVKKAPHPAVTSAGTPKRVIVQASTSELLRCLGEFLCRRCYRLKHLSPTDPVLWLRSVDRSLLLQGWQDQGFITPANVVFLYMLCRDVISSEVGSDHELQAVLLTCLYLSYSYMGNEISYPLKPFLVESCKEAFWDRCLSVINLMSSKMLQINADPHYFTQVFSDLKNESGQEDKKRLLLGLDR
Experimental: (§4) CDK2/Cyclin E kinase was produced in Sf9 insect cells via baculoviral infection and purified on a NiNTA column (Qiagen). CDK5/p35, CDK7Cyclin H/MAT1 and CDK9/Cyclin T1 was purchased from ProQinase GmbH. The kinase reactions were assayed with 1 mg/mL histone H1 (for CDK2 and CDK5) or (YSPTSPS)2KK peptide (for CDK7 and CDK9) in the presence of 15/0.15/1.5/1.5 μM ATP (for CDK2/CDK5/CDK7CDK9), 0.05 μCi [γ-^33P]ATP and of the test compound in a final volume of 10 μL, all in a reaction buffer (60 mM HEPES-NaOH, pH 7.5, 3 mM MgCl2, 3 mM MnCl2, 3 μM Na-orthovanadate, 1.2 mM DTT, 2.5 μg/50 μl PEG20,000). The reactions were stopped by adding 5 μL of 3% aq H3PO4. Aliquots were spotted onto P-81 phosphocellulose (Whatman), washed 3× with 0.5% aq H3PO4 and finally air-dried.
as §3

CDK9/Cyclin T1 = molecular target: T3, CDK9/Cyclin T1 (Homo sapiens, UniProt P50750); assay: as above; type: biochemical; details: for remaining activity at 0.1 µM: 100 nM; for remaining activity at 0.1 µM / remaining activity at 1 µM: read-out: Residual kinase activity, CDK9; for remaining activity at 1 µM: 1000 nM
T3 construct: purchased ProQinase GmbH (Freiburg, Germany)
T3 sequence (P50750 whole entry): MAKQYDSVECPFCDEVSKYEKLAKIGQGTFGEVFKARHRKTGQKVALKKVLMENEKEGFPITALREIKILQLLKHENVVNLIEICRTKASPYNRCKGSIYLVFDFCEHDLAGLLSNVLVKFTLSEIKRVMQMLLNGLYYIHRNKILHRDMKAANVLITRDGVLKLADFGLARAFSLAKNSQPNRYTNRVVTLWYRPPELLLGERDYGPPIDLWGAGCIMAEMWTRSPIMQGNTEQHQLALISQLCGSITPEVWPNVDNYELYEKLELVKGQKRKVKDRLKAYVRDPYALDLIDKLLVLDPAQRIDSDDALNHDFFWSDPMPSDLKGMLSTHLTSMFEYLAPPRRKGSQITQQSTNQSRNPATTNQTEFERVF
T3 sequence (O60563 whole entry partner): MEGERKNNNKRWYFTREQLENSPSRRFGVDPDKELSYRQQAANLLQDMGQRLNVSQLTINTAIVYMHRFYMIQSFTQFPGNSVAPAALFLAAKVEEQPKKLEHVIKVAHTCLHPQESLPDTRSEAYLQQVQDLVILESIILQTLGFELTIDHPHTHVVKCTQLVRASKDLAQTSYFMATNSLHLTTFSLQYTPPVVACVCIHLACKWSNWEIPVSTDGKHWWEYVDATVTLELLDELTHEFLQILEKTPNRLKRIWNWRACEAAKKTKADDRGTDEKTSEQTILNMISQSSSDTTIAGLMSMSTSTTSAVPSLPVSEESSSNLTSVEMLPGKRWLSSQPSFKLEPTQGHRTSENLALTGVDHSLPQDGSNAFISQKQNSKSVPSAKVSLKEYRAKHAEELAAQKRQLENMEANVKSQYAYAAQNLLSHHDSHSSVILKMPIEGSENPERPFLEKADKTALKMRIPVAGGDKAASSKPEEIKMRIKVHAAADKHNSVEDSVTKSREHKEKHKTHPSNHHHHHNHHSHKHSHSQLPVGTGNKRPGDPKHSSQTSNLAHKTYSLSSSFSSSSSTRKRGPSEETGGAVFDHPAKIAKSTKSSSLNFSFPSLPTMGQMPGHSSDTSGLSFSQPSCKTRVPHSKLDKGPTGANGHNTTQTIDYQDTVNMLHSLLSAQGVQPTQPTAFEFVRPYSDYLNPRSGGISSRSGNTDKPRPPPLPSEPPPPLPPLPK
Experimental: as §4, §3

[3] = read-out: Kinase inhibition IC50, CDK1

NC1CCC(Nc2nc(NCc3ccc(-c4cccs4)cc3)c3ncn(C4CCCC4)c3n2)CC1 (stereo not shown) [BP2, N^2-(4-amino-cyclohexyl)-9-cyclopentyl-N^6-(4-thiophen-2-yl-benzyl)-9H-purine-2,6-diamine]
IC50 (PLC/PRF/5): 105 nM | IC50 (HUH-7): 319 nM | IC50 (HCC-1.1 (3sp)): 466 nM | IC50 (HCC-1.2 (3p)): 317 nM | IC50 (CDK1/cyclin B; [3]): 119 nM | melting point: 225 to 226 °C

NC1CCC(Nc2nc(NCc3ccc(-c4ccco4)cc3)c3ncn(C4CCCC4)c3n2)CC1 (stereo not shown) [BP4, N^2-(4-amino-cyclohexyl)-9-cyclopentyl-N^6-(4-furan-2-yl-benzyl)-9H-purine-2,6-diamine]
IC50 (PLC/PRF/5): 106 nM | IC50 (HUH-7): 355 nM | IC50 (HCC-1.1 (3sp)): 813 nM | IC50 (HCC-1.2 (3p)): 802 nM | Wound area ([1]; 100 nM): 0 | Wound area ([1]; 1000 nM): ++ | IC50 (CDK1/cyclin B; [3]): 148 nM | melting point: 157 to 159 °C | IC50 ([2]; 24 h): 15700 nM | IC50 ([2]; 72 h): 450 nM

NC1CCC(Nc2nc(NCc3ccc(-c4ccsc4)cc3)c3ncn(C4CCCC4)c3n2)CC1 (stereo not shown) [BP5, N^2-(4-amino-cyclohexyl)-9-cyclopentyl-N^6-(4-thiophen-3-yl-benzyl)-9H-purine-2,6-diamine]
IC50 (PLC/PRF/5): 60 nM | IC50 (HUH-7): 231 nM | IC50 (HCC-1.1 (3sp)): 454 nM | IC50 (HCC-1.2 (3p)): 420 nM | IC50 (CDK1/cyclin B; [3]): 183 nM | melting point: 114 to 118 °C

NC1CCC(Nc2nc(NCc3ccc(-c4cccc(F)c4)cc3)c3ncn(C4CCCC4)c3n2)CC1 (stereo not shown) [BP12, N^2-(4-amino-cyclohexyl)-9-cyclopentyl-N^6-(3′-fluoro-biphenyl-4-ylmethyl)-9H-purine-2,6-diamine]
IC50 (PLC/PRF/5): 77 nM | IC50 (HUH-7): 199 nM | IC50 (HCC-1.1 (3sp)): 492 nM | IC50 (HCC-1.2 (3p)): 288 nM | IC50 (CDK1/cyclin B; [3]): 422 nM | melting point: 146 to 148 °C

NC1CCC(Nc2nc(NCc3ccc(-c4ccoc4)cc3)c3ncn(C4CCCC4)c3n2)CC1 (stereo not shown) [BP13, N^2-(4-amino-cyclohexyl)-9-cyclopentyl-N^6-(4-furan-3-yl-benzyl)-9H-purine-2,6-diamine]
IC50 (PLC/PRF/5): 76 nM | IC50 (HUH-7): 339 nM | IC50 (HCC-1.1 (3sp)): 613 nM | IC50 (HCC-1.2 (3p)): 602 nM | IC50 (CDK1/cyclin B; [3]): 202 nM | melting point: 154 to 156 °C

NC1CCC(Nc2nc(NCc3ccc(-c4ccco4)nc3)c3ncn(C4CCCC4)c3n2)CC1 (stereo not shown) [BP14, N^2-(4-amino-cyclohexyl)-9-cyclopentyl-N^6-(6-furan-2-yl-pyridin-3-ylmethyl)-9H-purine-2,6-diamine]
IC50 (PLC/PRF/5): 7 nM | IC50 (HUH-7): 373 nM | IC50 (HCC-1.1 (3sp)): 513 nM | IC50 (HCC-1.2 (3p)): 410 nM | Wound area ([1]; 100 nM): + | Wound area ([1]; 1000 nM): ++ | IC50 (CDK1/cyclin B; Table 12, read-out: IC50, CDK1/cyklin B): 50 nM | IC50 (CDK1/cyclin B; [3]): 50 nM | remaining activity at 0.1 µM (CDK5/p35): 37.8% | remaining activity at 1 µM (CDK5/p35): 24.8% | remaining activity at 0.1 µM (CDK9/Cyclin T1): 22.3% | remaining activity at 1 µM (CDK9/Cyclin T1): 0.73% | IC50 (CDK9/Cyclin T1; Table 12, read-out: IC50, CDK9/cyklin T): 7 nM | IC50 ([2]; 24 h): > 50000 nM | IC50 ([2]; 72 h): 50 nM

COc1ccccc1-c1ccc(CNc2nc(NC3CCC(N)CC3)nc3c2ncn3C2CCCC2)cc1 (stereo not shown) [BP16, N^2-(4-amino-cyclohexyl)-9-cyclopentyl-N^6-(2′-methoxy-biphenyl-4-ylmethyl)-9H-purine-2,6-diamine]
IC50 (PLC/PRF/5): 129 nM | IC50 (HUH-7): 363 nM | IC50 (HCC-1.1 (3sp)): 767 nM | IC50 (HCC-1.2 (3p)): 580 nM | IC50 (CDK1/cyclin B; [3]): 301 nM | melting point: 178 to 180 °C

OC1CCC(Nc2nc(NCc3ccc(-c4ccco4)nc3)c3ncn(C4CCCC4)c3n2)CC1 (stereo not shown) [BP21, 4-{9-cyclopentyl-6-[(6-furan-2-yl-pyridin-3-ylmethyl)-amino]-9H-purine-2-ylamino}-cyklohexanol]
IC50 (PLC/PRF/5): 46 nM | IC50 (HUH-7): 155 nM | IC50 (HCC-1.1 (3sp)): 408 nM | IC50 (HCC-1.2 (3p)): 167 nM | IC50 (CDK1/cyclin B; [3]): 215 nM | remaining activity at 0.1 µM (CDK5/p35): 88.2% | remaining activity at 1 µM (CDK5/p35): 23.4% | remaining activity at 0.1 µM (CDK9/Cyclin T1): 49% | remaining activity at 1 µM (CDK9/Cyclin T1): 7.74% | melting point: 164 to 166 °C

Nc1ccccc1-c1ccc(CNc2nc(NC3CCC(N)CC3)nc3c2ncn3C2CCCC2)cn1 (stereo not shown) [BP22, N^2-(4-amino-cyclohexyl)-9-cyclopentyl-N^6-[6-(2-amino-phenyl)-pyridin-3-ylmethyl]-9H-purine-2,6-diamine]
IC50 (PLC/PRF/5): 280 nM | IC50 (HUH-7): 642 nM | IC50 (HCC-1.1 (3sp)): 516 nM | IC50 (HCC-1.2 (3p)): 436 nM | IC50 (CDK1/cyclin B; [3]): 100 nM | remaining activity at 0.1 µM (CDK5/p35): 87.8% | remaining activity at 1 µM (CDK5/p35): 89% | remaining activity at 0.1 µM (CDK9/Cyclin T1): 93.4% | remaining activity at 1 µM (CDK9/Cyclin T1): 82.8% | melting point: 173 to 175 °C

NC1CCC(Nc2nc(NCc3ccc(-n4cccn4)cc3)c3ncn(C4CCCC4)c3n2)CC1 (stereo not shown) [BP24, N^2-(4-amino-cyclohexyl)-9-cyclopentyl-N^6-(4-pyrazol-1-yl-benzyl)-9H-purine-2,6-diamine]
IC50 (PLC/PRF/5): 12 nM | IC50 (HUH-7): 177 nM | IC50 (HCC-1.1 (3sp)): 339 nM | IC50 (HCC-1.2 (3p)): 169 nM | Wound area ([1]; 100 nM): + | Wound area ([1]; 1000 nM): ++ | IC50 (CDK1/cyclin B; [3]): 58 nM | melting point: 186 to 187 °C | IC50 ([2]; 24 h): > 50000 nM | IC50 ([2]; 72 h): 170 nM

Nc1ccccc1-c1ccc(CNc2nc(NC3CCC(N)CC3)nc3c2ncn3C2CCCC2)cc1 (stereo not shown) [BP32, N^2-(4-amino-cyclohexyl)-9-cyclopentyl-N^6-(2′-amino-biphenyl-4-ylmethyl)-9H-purine-2,6-diamine]
IC50 (PLC/PRF/5): 122 nM | IC50 (HUH-7): 647 nM | IC50 (HCC-1.1 (3sp)): 687 nM | IC50 (HCC-1.2 (3p)): 543 nM | IC50 (CDK1/cyclin B; [3]): 152 nM | melting point: 168 to 170 °C
